Measurements taken from patent publication US5574068A, “S-nitrosothiols as smooth muscle relaxants and therapeutic uses thereof” (Brigham and Woman's Hospital, priority 1994, dated 1996).
Entries after “also recorded” stand apart in the source; their conditions may differ. One block for each compound: values may come before it.

Key:
[1] = tested on: guinea pig tracheal rings; experiment: Airway bioassay: relaxation of contracted guinea pig tracheal rings (isometric tension); type: cell-based; conditions: for IC50: Cavia porcellus, guinea pig tracheal rings contracted with 3 μM histamine, mean ± S.D., read-out: Inhibitory Concentrations Inducing 50% Relaxation (IC50); for inhibition of relaxation responses to SNOAC: airways contracted with 3 uM histamine, 10^-5 M and 10^-4 M methylene blue; for inhibition of relaxation responses to SNOAC / attenuation of the actions (relaxation) of SNOAC: 10^-4 M hemoglobin; for attenuation of the actions (relaxation) of SNOAC: guinea pig airways, 10^-5 and 10^-4 M methylene blue
Text: (§1) Male Hartley guinea pigs (500-600 g) were anesthetized by inhalation of enflurane to achieve a surgical plane of anesthesia. The trachea were excised and placed in Kreb's-Henseleit buffer (mM): NaCl 118, CKl 5.4, NaH2 PO4 1.01, glucose 11.1, NaHCO3 25.0, MgSO4 0.69, CaCl 2.32, pH 7.4. The airways were then dissected free from surrounding fat and connective tissue and cut into rings 2-4 mm in diameter. The trachea rings were placed in sterile Medium 199 containing 1% antibiotic/antimycotic mixture in an atmosphere of 5% CO2, 45% O2, […], and kept for up to 48 hours in tissue culture. The experiments were also performed on human airway smooth muscle, isolated by the same method.
(§2) Trachea and aortic rings were mounted on stirrups and connected to transducers (model FOT3C Grass) with which changes in isometric tension were measured. Rings were then suspended in 10 cc of oxygenareal (95% O2, 5% CO2) buffer. Conditions for both the vessel and airway bioassays were established according to standard methodologies as described in Cooke et al., Am. J. Physiol. 259(3):H804-H812 (1990).
(§3) In airway experiments, the tings were equilibrated for 60 minutes under a load of 1 gm and then primed twice by exposure to 100 μmethacholine. Tissues were contracted with various agonists at concentrations determined to generate 50% (±16% S.D.) of maximum tone, after which the effects of different thiols and their S-nitrosylated derivatives were assessed. In selected experiments, relaxation responses were determined in the presence of hemoglobin, or after rings had been preexposed to methylene blue for 30 minutes.
Dose-response relationships to SNOAC were obtained in airways contracted with 3 uM histamine, and repeated in the presence of 10^-4 M hemoglobin, 10^-5 M methylene blue, and 10^-4 M methylene blue. […] Cyclic GMP determinations were performed in duplicate for each experiment.

[2] = Stability in the presence of oxygen and redox metals; type: physicochemical; conditions: 95% O2, pH 7.4
Experimental: The stability of SNOAC and SNOGSH in the presence of oxygen and redox metals was assessed.
In addition, S-nitrosothiol stability was assessed in the presence of various redox metals or chelating agents. These compounds were resistant to decomposition when Cu^+, Fe^2+, or Cu^2+ (50 μM) or defuroxamine or EDTA S-nitrosothiols are not rapidly inactivated in the presence of oxygen, nor do they decompose in the presence of redox metals.

hemoglobin = biological target: T1, hemoglobin (Bos taurus, UniProt P01966+P02070); experiment: Reaction of S-nitrosothiol with hemoglobin (UV spectrum, oxygen association curve); type: biochemical, bovine; conditions: SNOAC over 15 minutes, NO from NaNO2 in 0.5N HCl
T1 construct: purchased Sigma Chemical Co., St. Louis, Mo
Experimental: Additional experiments were conducted to evaluate the reaction between S-nitrosothiols and hemoglobin. […] S-nitrosylation was verified, using standard methods for detection of S-nitrosothiols (Saville, Analyst 83:670-672 (1958)). The Saville method, which assays free NOx in solution, involves a diazotization reaction with sulfanilamide and subsequent coupling with the chromophore N-(1-naphthyl)ethylenediamine. The specificity for S-nitrosothiols derives from assay determinations performed in the presence and absence of HgCl2, the latter reagent catalyzing the hydrolysis of the S--NO bond.
For the purposes of comparison, equimolar concentrations of hemoglobin and NaNO2 were reacted in 0.5N HCl, to form nitrosyl-hemoglobin, and the UV spectrum was obtained.
Thus, the reaction between S-nitrosothiols and hemoglobin not only eliminates the inhibition of oxygen binding which occurs from the reaction with NO.cndot., but actually increases binding and oxygenation of the blood.

[3] = cited from earlier work
[4] = tested on: human airway smooth muscle; experiment: Airway bioassay: relaxation of contracted human tracheal/airway rings; type: cell-based; conditions: for relaxant effect on human trachea, comparison with other agents: human tracheal rings, FIGS. 11-14; for inhibition of S-nitrosothiol (SNOAC)-induced relaxation in human airways: methylene blue 10^-4, LY83583 5×10^-5, hemoglobin 100 μM; for IC50: human airways 5-12 mm outer diameter, contracted with methacholine (7 μM); for IC50 compared with theophylline: human airways contracted with methacholine (7 μM)
Text: as §1, §2, §3
(§4) The effect of guanylate cyclase inhibitors upon S-nitrosothiol-induced airway relaxation and cGMP increase was assessed, using the previously described bioassay and cyclic nucleotide assay procedures. Bronchodilator effects of S-NOGSH and SNOAC were examined in human airways (5-12 mm outer diameter).

[5] = tested on: cyclic GMP (guanylate cyclase) in tracheal rings; experiment: Cyclic GMP radioimmunoassay in guinea pig tracheal rings; type: cell-based
Experimental: (§5) The mechanism by which S-nitrosothiols relax vascular smooth muscle is felt to be through activation of guanylate cyclase with consequent increase in intracellular cyclic GMP (Ignarro et al., Circ. Res. 65:1-21 (1989); Loscalzo et al., J. Pharmacol. Exp. Ther. 249(3):726-729 (1989)). In order to assess this mechanism in airways, tracheal rings in Kreb's-Henseleit solution were exposed to 100 μM S-nitroso-N-acetylcysteine (SNOAC) for 90 seconds. Reactions were terminated by the addition of ice cold 10% trichloracetic acid and rapid freezing in ethanol-saturated dry ice.
(§6) In selected experiments, rings were preexposed to the guanylate cyclase inhibitor, methylene blue (10^-4 M) for 30 minutes. Tissues were then individually pulverized with a glass (s) homogenizer and centrifuged at 8000 g for 5 minutes. The clear supernatant was extracted with water-saturated ether and assayed for cyclic GMP by radioimmunoassay. Acetylation of samples with acetic anhydride was used to increase the sensitivity of the assay and the determination of recoveries was aided by the use of [^3 H] cyclic GMP.

cGMP in human airways = experiment: Cyclic GMP radioimmunoassay in human airways; type: cell-based
Experimental: as §5, §6, §4

[6] = tested on: gastrointestinal smooth muscle (Sphincter of Oddi, duodenum, colon); experiment: Patient studies: topical administration during endoscopy, gastrointestinal smooth muscle motility; type: in vivo, human; conditions: patients
Text: Patient studies, conducted by the inventors, have measured the efficacy of S-nitrosothiols both in facilitating cannulation of the sphincter of Oddi, and in decreasing colon motility to allow for removal of colon polyps. […] The same type of effects would occur with the use of other cell impermeable S-nitrosothiols, such as S-nitroso-glutathione.

T1 sequence (P02070 whole entry): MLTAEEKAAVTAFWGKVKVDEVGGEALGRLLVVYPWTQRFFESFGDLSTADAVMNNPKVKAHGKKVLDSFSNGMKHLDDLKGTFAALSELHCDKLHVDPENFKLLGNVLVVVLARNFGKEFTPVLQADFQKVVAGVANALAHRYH
T1 sequence (P01966 2-142 limits assumed): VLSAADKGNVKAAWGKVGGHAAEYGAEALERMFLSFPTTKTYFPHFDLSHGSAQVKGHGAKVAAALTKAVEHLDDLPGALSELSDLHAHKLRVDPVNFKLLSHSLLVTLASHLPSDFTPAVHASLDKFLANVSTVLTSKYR

Compound: C[C@H](CSN=O)C(=O)N1CCC[C@H]1C(=O)O [S-nitroso-captopril]
- IC50 [1]: 20 ± 0.7 µM

Compound: [N]=O [NO, nitric oxide, reference compound]
- half life [2]: on the order of seconds
- reaction at the redox metal (iron-binding) site of hemoglobin (hemoglobin): reacted instantaneously with the redox metal site on hemoglobin

Compound: Cn1c(=O)c2[nH]cnc2n(C)c1=O [theophylline]
- plasma concentration at which unacceptable symptoms of toxicity usually appear [3]: ≥ 20000 ng/mL

Compound: CC(=O)N[C@@H](CS)C(=O)O [N-acetylcysteine, reference compound]
- relaxant effect on human trachea, comparison with other agents [4]: caused significant constriction of the tracheal smooth muscle

Compound: hemoglobin: hemoglobin (bovine), established inhibitor of NO-induced relaxations
- inhibition of relaxation responses to SNOAC [1]: inhibited
- attenuation of the actions (relaxation) of SNOAC [1]: 10-20%
- inhibition of S-nitrosothiol (SNOAC)-induced relaxation in human airways [4]: neither hemoglobin or methylene blue attenuated the relaxation effect; also recorded: had little effect

Compound: CC(C)NCC(O)c1ccc(O)c(O)c1 (stereo not shown) [isoproterenol, reference compound]
- rank of relaxant activity among SNOAC, isoproterenol, theophylline ([1]; FIG. 8): most active relaxant

Compound: CN(C)c1ccc2nc3ccc(=[N+](C)C)cc-3sc2c1 [methylene blue, reference compound]
- inhibition of relaxation responses to SNOAC [1]: in a dose-dependent manner
- attenuation of the actions (relaxation) of SNOAC [1]: 10-20%
- inhibition of S-nitrosothiol (SNOAC)-induced relaxation in human airways [4]: neither hemoglobin or methylene blue attenuated the relaxation effect; also recorded: not significantly inhibited
- effect on SNOAC-induced increase in cyclic GMP ([5]; pretreatment with methylene blue 10^-4 M, 30 minutes): attenuated

The next lines start with results.

- IC50 [1]: 2.1 ± 0.3 µM
Compound: N[C@@H](CCSN=O)C(=O)O [S-nitroso-homocysteine]

- IC50 [1]: 3.2 ± 0.2 µM
Compound: N[C@@H](CSN=O)C(=O)O [S-nitroso-cysteine]

- IC50 [1]: 2.1 ± 0.8 µM
- IC50 [4]: 22 µM
- half life [2]: on the order of hours
Compound: CC(=O)N[C@@H](CSN=O)C(=O)O [S-nitroso-N-acetylcysteine]
- persistence of relaxation ([1]; 5×10^-6 M, at one hour): significant residual loss of tone was still evident at one hour
- time to maximal relaxation ([1]; 5×10^-6 M, followed over 60 minutes): maximal relaxation occurred by five minutes
- relaxant activity of SNOAC relative to SNOCAP ([1]; contractions induced by leukotriene D4, histamine, methacholine, in every case): approximately 10 fold
- relaxant activity relative to theophylline ([1]; identical study conditions, FIG. 8): approximately 50 times
- IC50 compared with theophylline [4]: approximately two orders of magnitude greater than theophylline
- relaxant effect on human trachea, comparison with other agents ([4]; listed as SNOAC): significantly greater than that of N-acetylcysteine; also recorded: significantly more potent than that of theophylline; also recorded: compares favorably with that exerted by isoproterenol
- increase in cyclic GMP over basal levels (control) ([5]; guinea pig tracheal rings, 100 μM SNOAC, 90 seconds): 4 fold
- increase in cyclic GMP over basal levels (control) (cGMP in human airways; human airways incubated with SNOAC): 4 fold
- cGMP (cGMP in human airways; human airways, Table 3): 46 ± 17 Pmol/gm
- duration and reversibility of relaxant effects [6]: temporary (lasting only for the duration of the procedure), completely reversible
- systemic blood pressure, heart rate, oxygen saturation [6]: produced no change in systemic blood pressure, heart rate or oxygen saturation
- colon motility ([6]; removal of colon polyps): eliminated colon motility
- duodenal motility ([6]; topical administration): eliminated duodenal motility
- contractile activity of the Sphincter of Oddi ([6]; topical administration, endoscopic cannulation): inhibited the contractile activity of the Sphincter of Oddi
- reaction at the redox metal (iron-binding) site of hemoglobin (hemoglobin): no reaction at the redox metal (iron-binding site) of hemoglobin

- IC50 [1]: 0.99 ± 2 µM
- IC50 [4]: 22 µM
- half life [2]: on the order of hours
Compound: N[C@@H](CCC(=O)N[C@@H](CSN=O)C(=O)NCC(=O)O)C(=O)O [S-nitroso-glutathione]
- IC50 compared with theophylline [4]: approximately two orders of magnitude greater than theophylline
- relaxant effect on human trachea, comparison with other agents [4]: significantly greater than nitrite (NO2)
- relaxant effect on human trachea, comparison with other agents ([4]; listed as S-nitrosoglutathione): significantly greater than glutathione alone
- relaxant effect on human trachea, comparison with other agents ([4]; listed as SNOGSH): significantly more potent than that of theophylline; also recorded: compares favorably with that exerted by isoproterenol
